# Where two headings read alike, the source gives them in different places.
# Tests used:
# fluorouracil toxicity = conditions: cited from earlier work
# blood lactate levels = assay: Plasma lactate elevation after oral gavage (stress response) during repeat dose toxicology study; assay type: in vivo, rats; conditions: rat plasma lactate
# [1] = metabolites, not the prodrug, are observed in blood; cited from earlier work
# [2] = tested on: patients with bipolar disorder; assay: Adverse events in the 6-week patient study; assay type: in vivo, human
# Excerpt: The total number of adverse events is reported by the number and percentage of subjects experiencing each adverse event. If a subject reported the same adverse event over the course of the study, that event was counted once.
# During the course of the 6-week study, there were some reported side effects to the medication. 1 subject reported stomach cramps, 1 reported nausea, 4 reported decreased appetite, 3 reported an increase in constipation, 4 reported diarrhea, 1 reported muscle cramps, 2 reported headaches, 1 reported fatigue, 2 reported problems with sleeping, 2 reported increased flatulence, and 1 reported a decrease in libido. In addition, one subject reported changes in their vision that affected their depth perception. […] The subject independently decided to increase their dose back to its original amount in response to their manic reaction to the decreased dose. Due to this protocol deviation, and the subject's manic break, the subject was terminated from the study.
# in vivo = conditions: both sexes, Crl: CD (SD)IGS BR, rat, po
# Procedure: RG2133 has been tested in a repeat dose rodent toxicity and toxicokinetic study. Three groups of ten male and ten female rats (Crl: CD® (SD)IGS BR strain) received RG2133 orally, by gavage, at dosages of 300, 1000, or 2000 mg/kg/day (administered as 150, 500, or 1000 mg/kg b.i.d.) in aqueous 1% carboxymethylcellulose with methyl paraben (at 1.8 g/l) and propyl paraben (at 0.2 g/l) for four weeks. Animals were examined by observation and lab analysis of blood and urine for evidence of toxicity, and results are shown in Table 1. Tissues were examined microscopically for evidence of drug related toxicity. […] The no-observed-adverse-effect-level (NOAEL) was considered to be 2000 mg/kg/day (1000 mg/kg b.i.d.).
# [3] = tested on: patients with bipolar disorder; assay: Phase I 6-week open-label clinical trial in outpatients with bipolar disorder (rating scales, patient histories)
# Excerpt: The new methods are based on a Phase I open-label clinical trial of RG2133, a prodrug of uridine, designed to assess the impact of uridine in patients with bipolar disorder. […] The trial assessed the impact of daily, oral administration of escalating doses of RG2133 over a 6 week period on the symptoms associated with bipolar disorder, which are not adequately treated with existing drugs including SSRIs such as Prozac® or Zoloft®. The trial included 11 patients.
# Outpatients with bipolar disorder were recruited for this 6-week open-label study. Patients' daily dose amounts were divided into three daily doses. Subjects received an initial RG2133 dose of 6 g/day. […] Subjects were monitored for changes in mood using standard rating scales. The subjects' physical status was followed clinically and with standard laboratory measures to monitor for any adverse effects and/or toxicity.
# During the baseline visit, a detailed psychiatric and medical history was obtained, and the following standard rating scales were performed: Structured Clinical Interview for DSM-IV (SCID) for diagnosis, Young Mania Rating Scale (YMRS), Montgomery-Asberg Depression rating Scale (MADRS), the Hamilton Anxiety Scale (HAMA), Clinical Global Impression scale (CGI), the Global Assessment of Function (GAF) scale, quality of life scale (SF-36), as well as a brief adverse-effect rating scale.
# After the baseline evaluation, patients returned for office visits at weeks 1, 2, 3, 4, and 6. The same rating scales were performed at each follow-up office visit, except for the SCID. Instead of the full SCID at the follow-up visits, only the SCID screening questions for mania and depression were performed to aid in the determination of syndromic recovery or recurrence. In addition, patients maintained a daily Mood Diary, which was reviewed at each study visit to elicit symptom recall. Routine clinical and laboratory evaluations of each patient's physical status occurred at baseline and at regular intervals. Subjects were monitored for changes in mood using standard rating scales. The subjects' physical status was followed clinically and with standard laboratory measures to monitor for any adverse effects and/or toxicity.
# During the study patients were evaluated using the Montgomery-Asberg Depression Rating Scale (MADRS). This scale measures the effect of treatment on depression severity relative to a baseline assessment before treatment. The MADRS measures the severity of a number of symptoms on a scale from 0 to 60, including mood and sadness, tension, sleep, appetite, energy, concentration, suicidal ideation, and restlessness. Increasing scores reflect a greater severity of depression. Scores of 15-25 on the MADRS scale indicate moderate depression. Scores above 25 indicate clinically severe depression.
# During the study patients were also evaluated using the Young Mania Rating Scale (YMRS). This scale assesses the severity of mania in patients already diagnosed with mania based on a personal interview. Scores of 1 to 12 are not considered to be suffering from mania, whereas a score of 13 indicates minimal mania. Increasing scores to 44, indicate progressively severe mania.
# During the study patients were also evaluated using Clinical Global Impression (CGI) scale. A clinician rated the severity of the patient's illness relative to the clinician's past experience with patients with the same diagnosis. At the outset of the study a clinician created a baseline single item score on a 7 point scale from 1 (‘normal’, not ill) to 7 (extremely ill). CGI was then used to track the clinical distance between a patient's individual's current condition and his or her baseline condition at the start of treatment.
# During the study patients were evaluated using Global Assessment of Functioning (GAF), which is a modified version of the Global Assessment Scale (GAS).
# [4] = uridine infusion, cited from earlier work
# [5] = in vivo; cited from earlier work
# [6] = oral, cited from earlier work
# [7] = cited from earlier work
# [8] = bipolar patients, daily oral escalating doses, 6 weeks
smiles,measurement,setting,value
"CC(=O)OC[C@H]1O[C@@H](n2ccc(=O)[nH]c2=O)[C@H](OC(C)=O)[C@@H]1OC(C)=O [RG2133, 2′,3′,5′-tri-O-acetyluridine]",Effect on hematologic toxicities associated with fluorouracil,fluorouracil toxicity; 6 g/dose every 6 hours,reduction in hematologic toxicities
same,Adverse effect seen,"fluorouracil toxicity; cancer patients, toxicity evaluation equivocal because of cancer and fluorouracil toxicities",Diarrhea
same,peak blood uridine levels,"fluorouracil toxicity; suspension and tablet forms, 6 g/dose every 6 hours for 9 doses",167 µM
same,Effect on lactate level relative to normal baseline value (2.4 mM),blood lactate levels,did not reduce the lactate level below the normal baseline value
same,Metabolism of enteral dosages,[1],rapidly metabolized to uridine and uracil
same,Subjects reporting a decrease in libido,[2]; 6-week study,1
same,Subjects reporting an increase in constipation,[2]; 6-week study,3
same,Subjects reporting changes in vision that affected depth perception,[2]; 6-week study,one
same,Subjects reporting decreased appetite,[2]; 6-week study,4
same,Subjects reporting diarrhea,[2]; 6-week study,4
same,Subjects reporting fatigue,[2]; 6-week study,1
same,Subjects reporting headaches,[2]; 6-week study,2
same,Subjects reporting increased flatulence,[2]; 6-week study,2
same,Subjects reporting muscle cramps,[2]; 6-week study,1
same,Subjects reporting nausea,[2]; 6-week study,1
same,Subjects reporting problems with sleeping,[2]; 6-week study,2
same,Subjects reporting stomach cramps,[2]; 6-week study,1
same,Subjects reporting weaker vision,[2]; 6-week study,Another subject
same,Subjects reporting a manic episode,"[2]; week 3, after reducing the dose",One
same,NOAEL at 28 days,in vivo,2000 mg/kg/day
same,Individual patient: mania-type event,"[3]; Patient #3, bipolar II, on antidepressant, 12 g/day",slight hypomania at week three
same,Individual patient: reported mood,"[3]; Patient #4, bipolar I, on antidepressant, 6 to 12 g/day",feeling stable
same,Individual patient: mood at end of study,"[3]; Patient #4, week six",mood deteriorated at week six
same,Individual patient: mania-type event,"[3]; Patient #4, week three",some hypomania at week three
same,Individual patient: reported mood,"[3]; Patient #5, bipolar I, no antidepressant, 6 g/day",significant change in mood at week one
same,Individual patient: adverse effect,[3]; Patient #6,some eye pain
same,Individual patient: reported mood,"[3]; Patient #6, no antidepressant, 6 g/day",feeling significantly better than they had in two years
same,Individual patient: reported mood,"[3]; Patient #7, bipolar I, on antidepressant, 6 to 18 g/day",no change in mood
same,Individual patient: adverse event,[3]; Patient #11,severe bout of colitis
same,Individual patient: bipolar symptoms,"[3]; Patient #11, bipolar II, on antidepressant, 12 g/day",complete remission at week four
same,Individual patient: adverse effect,[3]; Patient #13,slight change in depth perception leading to two falls
same,Individual patient: reported mood,"[3]; Patient #13, bipolar I, no antidepressant, 6 to 9 g/day",feeling less depressed and more hopeful
same,Individual patient: complaints,"[3]; Patient #15, after three weeks","dizziness spells, constipation, and a reported manic episode"
same,Individual patient: reported mood,"[3]; Patient #15, bipolar II, no antidepressant, 6 to 12 g/day",feeling less volatile and fewer mood swings
same,Individual patient: complaints,[3]; Patient #16,loose stools and increased flatulence
same,Individual patient: reported mood,"[3]; Patient #16, bipolar II, on antidepressant, 6 to 12 g/day",no change in mood
same,Individual patient: complaints,[3]; Patient #17,loose stools and increased flatulence
same,Individual patient: reported mood,"[3]; Patient #17, bipolar II, on antidepressant, 6 to 12 g/day",no change in mood
same,Average GAF score,[3]; after week four (FIG. 4),declined to a level slightly above the initial GAF score
same,Average GAF score,[3]; beginning of the study to week four (FIG. 4),improved slightly
same,Average MADRS scores,[3]; between week three and week six (FIG. 1),rose slightly
same,Induction of mania,[3]; [8],did not induce mania
same,Safety of administration,[3]; [8],safe
same,Average female CGI scores,"[3]; course of the study relative to initial score, unlike male scores (FIG. 7)",improved
same,Averaged YMRS scores,[3]; during the course of the study (FIG. 2),slight decrease
same,Average HAM-A score,[3]; during the course of the study (FIG. 5),went down slightly
same,Female YMRS scores vs initial baseline,[3]; during the study (FIG. 6),did not increase above the initial baseline score
same,Average CGI score,[3]; end of the study vs baseline (FIG. 3),somewhat above baseline
same,Average MADRS scores,[3]; first three weeks of treatment (FIG. 1),slight decrease
same,"Average YMRS, female patients","[3]; first three weeks, female vs male (FIG. 6)",declined slightly more than males
same,"Average CGI scores, patients not taking antidepressant",[3]; vs patients on antidepressant medication (FIG. 8),faster decline
same,CGI,[3]; weeks one to three (FIG. 3),improved slightly
same,CGI,[3]; weeks three to six (FIG. 3),deteriorated slightly
same,Effect on patients' depression (MADRS),[3]; whole study,did not significantly worsen patients' depression
O=c1ccn([C@@H]2O[C@H](CO)[C@@H](O)[C@H]2O)c(=O)[nH]1 [uridine],Plasma concentrations above baseline values,[4]; baseline 3 μM,> 100 fold
same,Observed side effect,[4],fever
same,volume distribution,[5],around 0.634 liters/kg
same,Reported effects,[6]; 10 or 12 g/m^2,cramps and diarrhea
same,maximum tolerated dose without side effects,[6]; multiple dosing every 6 hours,5 g/m^2
same,Reported effects,[6]; repeat doses every 6 hours of 8 g/m^2,diarrhea
same,maximum tolerated dose without side effects,[6]; single dose,10 g/m^2
same,Bioavailability,[6],5.8-9.9%
same,Doses at which no toxicity was observed,[6],≤ 8 g/m^2
same,peak plasma levels of uridine,[6],80 µM
same,Effect of higher dosages,"[7]; above 1000 mg/kg/day, some patients",mild diarrhea
same,Dosages with no known toxic effects,"[7]; pure uridine, long-term experience",up to 1000 mg/kg/day
